In EP4542231A1, “METHODS FOR IDENTIFYING AND STRATIFYING CANCERS AND CANCER PATIENTS BASED ON P2X4 RECEPTOR EXPRESSION” (Johann-Wolfgang-Goethe-Universität Frankfurt am Main, priority 2023, dated 2025):

Columns and labels:
[1] = tested on: human CRC tumor organoids; conditions: organoids that express P2X4 (CRC-organoid #1); previously shown, Schmitt et al, Nature, 2022; cited from earlier work
[2] = tested on: SU-DHL5 lymphoma cells; assay: Survival of SU-DHL5 cells in response to doxorubicin in the absence or presence of 5-BDBD; assay type: cell-based; conditions: lymphoma cells that do not express P2X4 protein; doxorubicin +/- 5-BDBD (Fig. 3B)
Excerpt: (§1) Survival of SU-DHL5 cells in response to doxorubicin in the absence or presence of 5-BDBD (B). Survival of human CRC tumor organoids in response to 5-FU in the absence or presence of 5-BDBD (C).
(§2) The inventors had previously shown that blocking P2X4 would sensitize organoids to 5-FU treatment (Schmitt et al, Nature, 2022). The inventors now confirmed that these organoids indeed express P2X4 (Fig. 3A, CRC-organoid #1).

[3] = tested on: human CRC tumor organoids; assay: Survival of human CRC tumor organoids in response to 5-FU in the absence or presence of 5-BDBD; assay type: cell-based; conditions: colorectal cancer organoids that do not express P2X4 protein; 5-FU +/- P2X4 inhibitor (Fig. 3C)
Excerpt: as §1, §2

[4] = tested on: ATP-induced S6 phosphorylation in PDTOs; conditions: selective P2X4, P2X1 or P2X7 inhibition; cited from earlier work

Compound	sensitization of organoids to 5-FU treatment [1]	sensitization towards P2X4 inhibition [2]	sensitization towards P2X4 inhibition [3]	ATP-induced S6 phosphorylation [4]
O=C1CN=C(c2cccc(Br)c2)c2oc3ccccc3c2N1 [5-BDBD, 5-(3-Bromophenyl)-1,3-dihydro-2H-Benzofuro[3,2-e]-1,4-diazepin-2-one]	sensitize	no sensitization	no sensitization	reduced
Clc1cccc(-c2nnnn2Cc2cccnc2)c1Cl [A-438079]	–	–	–	no effect
O=C(Nc1ccc(C(=O)Nc2ccc(C(=O)Nc3ccc(S(=O)(=O)O)c4cc(S(=O)(=O)O)cc(S(=O)(=O)O)c34)cc2)cc1)Nc1ccc(C(=O)Nc2ccc(C(=O)Nc3ccc(S(=O)(=O)O)c4cc(S(=O)(=O)O)cc(S(=O)(=O)O)c34)cc2)cc1 [NF279]	–	–	–	no effect
